Structures are written as SMILES.

Broadly, the IC50 is the midpoint of a concentration-inhibition curve. Low values mean greater potency, high ones weaker potency. By Cmax is commonly meant the peak of the concentration-time curve. As a reminder, the Tmax is the time at which the peak concentration occurs. The term AUC(0-t) denotes exposure summed from dosing to a finite time, without extrapolation to infinity.

In one data set the test system is Capan-1 cells. Put plainly: Inhibitory activity for Capan-1 cell proliferation (CCK-8). It counts as cell-based. Particulars: Homo sapiens, CAPAN-1, 120 h, 5 days incubation. The procedure, abridged:
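Capan-1 cells were seeded at 1.5 × 10^4 cells/mL and exposed to compound for 5 days. CCK-8 was added for 4 h, with absorbance read at 450 nm. IC50 came from a four-parameter dose-response fit.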

Data set [1] can be described thus: In vitro liver microsomal stability, human. It counts as in vitro ADME. The note with it: human liver microsome 0.5 mg/mL, 37 °C. An excerpt:
Table 2. Results for in vitro liver microsomal metabolic stability

Another data set relates to AsPc-1 cells. Put plainly: Inhibitory activity for AsPc-1 cell proliferation (CCK-8). Type of data set: cell-based, human. Particulars: Homo sapiens, ASPC1, 72 h incubation. The protocol: AsPc-1 cells in a well-growing state were collected into a centrifuge tube, adjusted to a cell density of 3 × 10^4 cells/mL, and inoculated onto a 96-well plate (100 µL/well). The compounds were added using a nanoliter pipettor such that the final concentrations of the compounds were 5000 nM-0.31 nM (the addition was performed in duplicate). Meanwhile, a control was set. After 72 h of incubation in the cell incubator, the assay reagent CCK-8 (manufacturer: Dojindo Laboratories; 10 µL/well) was added. After 3 h of incubation in the cell incubator, the absorbance was measured at 450 nm on a PerkinElmer Envision microplate reader. A four-parameter analysis was performed, a dose-response curve was fitted, and IC50 was calculated.

Data set [2] can be described thus: In vivo pharmacokinetics in mice. The note with it: mouse, plasma, po, ICR mice, IG, 10 mg/kg. The protocol: ICR mice weighing 20 g to 24 g were randomized into groups with 9 mice in each group after 3 to 5 days of acclimatization, and intragastric administration of the experimental compounds was performed at a dose of 10 mg/kg.
The test animals (ICR mice) were fasted for 12 h before administration and fed 4 h after administration, and were given free access to water before, after, and during the experiment.
After intragastric administration, about 0.1 mL of blood was collected via the orbital sinus at 0.25 h (15 min), 0.5 h (30 min), 1 h, 2 h, 4 h, 6 h, 8 h, and 10 h (each mouse was subjected to blood collection at 3 to 4 time points, with 3 mice per time point). Following anticoagulation with EDTA-K2, the blood samples were transferred to a centrifuge within 30 min and then centrifuged at 4000 rpm for 10 min at 4 °C to separate the plasma. All the plasma samples were collected and immediately stored at -20 °C for testing.
20 µL of the plasma sample to be tested and the standard curve sample were pipetted, and 400 µL of acetonitrile solution containing an internal standard (20 ng/mL) was added. The mixture was shaken and mixed well for 10 min, and centrifuged at 13000 rpm for 10 min. 50 µL of the supernatant was taken and diluted with 100 µL of ultrapure water. After being mixed well, 0.5 µL of the resulting sample was subjected to LC/MS/MS, and a chromatogram was recorded.
Oral exposure of the compounds of the present disclosure was evaluated by in vivo pharmacokinetic experiments in mice.

With `C#Cc1c(F)ccc2cc(O)cc(-c3nc4c5c(nc(O[C@@H](C)[C@@H]6CCCN6C)nc5c3F)N(C(C)c3cccnc3N)[C@@H](C)CO4)c12` (single isomer, unassigned) [Example 107], the IC50 with Capan-1 cells was less than 100 nM. Further, the “The remaining amount % (T = 60 min) (0.5 mg/mL) Human liver microsome” value (“The remaining amount % (T = 60 min)” for short) in data set [1] is given as more than 40%.

With `C#Cc1c(F)ccc2cc(O)cc(-c3nc4c5c(nc(OCC67CCCN6CCC7)nc5c3F)N(C(C)c3cccnc3N)[C@@H](C)CO4)c12` (single isomer, unassigned) [Example 97], the half-maximal inhibitory concentration (IC50) with AsPc-1 cells was not above 100 nM; in the data set with Capan-1 cells, less than 100 nM. In data set [1], the “The remaining amount % (T = 60 min)” value is listed as more than 40%.

The compound `CC(c1cccnc1N)N1c2nc(OC[C@@H]3CCCN3C)nc3c(F)c(-c4cc(N)cc(Cl)c4C(F)(F)F)nc(c23)OC[C@@H]1C` (single isomer, unassigned) [Example 162] registered an IC50 with Capan-1 cells of less than 100 nM. In data set [2], the concentration peaked (Cmax) at 38.4 ng/mL and the time of peak concentration (Tmax) is 1 h. The compound further gave an AUC(0-t) at 6 h in data set [2] (gavage parameters were fitted to 6 h) of 156 ng·h/mL. For the same compound, in data set [1], the “The remaining amount % (T = 60 min)” value is reported as more than 40%.

The values are drawn from patent EP4570805A1, “TRICYCLIC COMPOUNDS AND MEDICAL USE THEREOF” (Chia Tai Tianqing Pharmaceutical Group Co., Ltd., priority 2022, dated 2024).
